According to patent US6541463B1, “Inhibitors of type 5 and type 3 17β-hydroxysteroid dehydrogenase and methods for their use” (Endorecherche, Inc., priority 1998, dated 2003):
Read-outs that look alike come from different tables or passages of the source.

Target: T1, glucocorticoid receptor (Rattus norvegicus, UniProt P06536)
T1 construct: from tissue; host or cells: liver cytosol of male Sprague-Dawley rats
T1 sequence (P06536 1-795): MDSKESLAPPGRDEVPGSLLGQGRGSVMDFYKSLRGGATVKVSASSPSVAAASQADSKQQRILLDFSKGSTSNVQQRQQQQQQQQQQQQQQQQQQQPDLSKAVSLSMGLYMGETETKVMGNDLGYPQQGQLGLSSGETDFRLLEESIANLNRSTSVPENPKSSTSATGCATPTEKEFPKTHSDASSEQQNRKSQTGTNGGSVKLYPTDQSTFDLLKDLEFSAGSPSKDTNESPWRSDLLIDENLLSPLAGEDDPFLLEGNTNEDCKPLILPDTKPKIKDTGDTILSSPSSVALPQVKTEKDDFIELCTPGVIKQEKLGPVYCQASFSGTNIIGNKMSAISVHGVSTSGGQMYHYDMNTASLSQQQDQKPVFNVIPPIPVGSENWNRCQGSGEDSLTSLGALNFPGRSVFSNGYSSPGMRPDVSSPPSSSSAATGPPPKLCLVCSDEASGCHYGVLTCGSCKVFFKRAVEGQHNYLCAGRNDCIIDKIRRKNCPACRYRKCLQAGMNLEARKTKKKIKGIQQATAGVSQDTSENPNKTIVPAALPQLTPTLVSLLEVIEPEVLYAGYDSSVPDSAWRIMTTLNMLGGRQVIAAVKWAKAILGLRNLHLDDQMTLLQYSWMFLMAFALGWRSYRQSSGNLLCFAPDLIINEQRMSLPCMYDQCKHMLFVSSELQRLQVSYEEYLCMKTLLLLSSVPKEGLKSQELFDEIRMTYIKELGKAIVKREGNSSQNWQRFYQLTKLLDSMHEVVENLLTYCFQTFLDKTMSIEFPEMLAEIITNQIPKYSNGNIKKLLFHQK
Assay: Glucocorticoid receptor assay: inhibition of [3H]-dexamethasone binding, liver cytosol
Settings: for inhibition at 1 µM: read-out: % Inhibition Glucocorticold Receptor E^−6; for inhibition at 0.01 µM: read-out: % Inhibition Glucocorticold Receptor E^−8
Method: The manner in which the percentage of inhibition is determined is described in “Other Tests; F-Glucocorticoid Receptor Assay”.
[6,7-^3H(N)]-Dexamethasone (39 Ci/mmol) was purchased from New England Nuclear (Lachine, Québec, Canada) while unlabeled dexametasone was obtained from Steraloids (Wilton, N.H.). All other chemicals were of analytical grade.
Stock solutions of the unlabeled steroids were kept at 4° C. in ethanol. The desired steroid solutions were then prepared by appropriate dilution in buffer B (10 mM Tris-HCl, 1.5 mM EDTA, 10 mM α-monothioglycerol, pH 7.4) containing 30% ethanol.
Male Sprague-Dawley rats weighing 200-300 g were obtained from Charles-River Inc. (St-Constant, Québec, Canada). The rats were killed by cervical dislocation and the liver were rapidly removed, dissected free from adhering tissue and frozen on dry-ice. Tissues were kept at −80° C. until use.
All procedures were performed at 4° C. Tissues were eminced and homogenized in 10 vol (w/v) of buffer A (25 mM Tris-HCl, 1.5 mM EDTA, 10 mM α-monothioglycerol, 10% glycerol, 10 mM sodium molybdate, pH 7.4) using a Polytron PT-10 homogenizer (Brinkmann Instruments, Canada) at a setting of 5 for two periods of 10 sec, with intervals of 10 sec for cooling. The homogenate was then centrifuged at 105,000×g for 90 min. The supernatant was used immediately for assay.
Glucocorticoid binding was measured using the dextran-coated charcoal adsorption technique. Incubations were performed at 0-4° C. for 16-18 h using 100 μl of cytosol, 100 μl of [^3H]-Dexamethasone (5 nM final) and 100 μl of unlabeled compounds at the indicated concentrations. Each concentration was done in triplicate. Assay was ended with 300 μl of DCC (2.5% Norit A and 0.25% Dextran T-70 in Buffer B). After 10 min of incubation, tubes were centrifuged at 2,000×g for 10 min. and decanted in vials with 6 ml of BCS liquid scintillation (New England Nuclear, Dupont). The radioactivity was measured in a Beckman counter at a counting efficiency of 35%.

Row | Compound | inhibition at 1 µM (Table 4′, E^−6) [%] | inhibition at 0.01 µM (Table 4′, E^−8) [%] | other results
1 | COCCOc1cc2c(cc1C(=O)O)C1CCC3(C)C(CCC34CCC(C)(C)C(=O)O4)C1CC2 [EM-1405, 2-Carboxy-3-(2″-methoxyethyloxy)-1,3,5(10)-estratrien-17(R)-spiro-2′-(5′,5′-dimethyl-6′-oxo)tetrahydropyran] | 0 | 0 | 
2 | CN1C(=O)C=C[C@]2(C)C3CC[C@@]4(C)C(CC[C@@]45CCCC(=O)O5)C3CCC12 (stereo partly shown) [EM-1122-CS] |  |  | inhibition at 1 µM (Table 5 column 15, E^−6): 0%; inhibition at 0.01 µM (Table 5 column 15, E^−8): 0%
3 | COCCOc1ccc2c(c1)C(=O)CC1C2CCC2(C)C1CCC21CCC(C)(C)C(=O)O1 (stereo not shown) [EM-1408-CS] | 0 | 0 | 
4 | COc1ccc2c(c1)C(=O)CC1C2CC[C@@]2(C)C1CC[C@@]21CCC(C)(C)C(=O)O1 (stereo partly shown) [EM-1394] | 2 | 3 | 
5 | CC(=O)O[C@]1(C)C(=O)CCC2C3C=C(C)C4=CC(=O)C=C[C@]4(C)C3CC[C@@]21C (stereo partly shown) [CS-237] |  |  | % Inhibition Glucocorticoid Receptor E^−6 (E^−6): 69%; % Inhibition Glucocorticoid Receptor E^−8 (E^−8): 7%
6 | CC1(C)CC[C@@]2(CCC3C4CCc5cc(C(=O)O)ccc5C4CC[C@@]32C)OC1=O (stereo partly drawn) [EM-1401, 3-Carboxy-1,3,5(10)-estratrien-17(R)-spiro-2′-(5′,5′-dimethyl-6′-oxo)tetrahydropyran] | 2 | 4 | 
7 | CC1CCC2(CCC3C4CCc5ccccc5C4CCC32C)OC1=O (stereo not shown) [EM-1025] | 0 | 0 | 
8 | CC12CCC3c4ccc(F)cc4CCC3C1CCC21CCCC(=O)O1 (stereo not shown) [EM-1170-CS] | 3 | 4 | 
9 | CC1(C)CCC2(CCC3C4CCc5c(cc(Cl)c(O)c5Cl)C4CCC32C)OC1=O (stereo not shown) [EM-1391-CS] | 2 | 0 | 
10 | CCC[C@@H]1CC2C3C=CC4=CC(=O)CC[C@]4(C)C3CC[C@]2(C)C1=O (stereo partly shown) [EM-1097] |  |  | % Inhibition Glucocorticoid Receptor E^−6 (E^−6): 0%; % Inhibition Glucocorticoid Receptor E^−8 (E^−8): 0%
11 | CC1(C)CCC2(CCC3C4CCc5cc(OS(C)(=O)=O)ccc5C4CCC32C)OC1=O (stereo not shown) [EM-1365-CS] | 5 | 0 | 
12 | CN(C)C(=O)c1ccc2c(c1)CCC1C2CCC2(C)C1CCC21CCC(C)(C)C(=O)O1 (stereo not shown) [EM-1403] | 0 | 0 | 
13 | CCCC(=O)OC1(C(C)=O)CCC2C3C=C(C)C4=CC(=O)CC(C)C4(C)C3CCC21C (stereo not shown) [CS-245] |  |  | % Inhibition Glucocorticoid Receptor (E^−6): 43%; % Inhibition Glucocorticoid Receptor (E^−8): 0%
14 | CCOc1ccc2c(c1)CCC1C2CC[C@@]2(C)C1CC[C@@]21CCC(C)(C)C(=O)O1 (stereo partly drawn) [EM-1369, 3-Ethoxy-1,3,5(10)-estratrien-17(R)-spiro-2′-(5′,5′-dimethyl-6′-oxo)-tetrahydropyran] | 2 | 1 | 
15 | CC1(C)CCC2(CCC3C4CCc5c(cc(Cl)c(OS(C)(=O)=O)c5Cl)C4CCC32C)OC1=O (stereo not shown) [EM-1392-CS] | 8 | 0 | 
16 | CCC[C@]1(F)CC2C3C=CC4=CC(=O)CC[C@]4(C)C3CC[C@]2(C)C1=O (stereo partly shown) [EM-1183] |  |  | % Inhibition Glucocorticoid Receptor E^−6 (E^−6): 12%; % Inhibition Glucocorticoid Receptor E^−8 (E^−8): 0%
17 | COC(=O)CCCC(=O)O[C@]1(C(C)=O)CC[C@H]2[C@@H]3C=C(C)C4=CC(=O)CC[C@]4(C)[C@H]3CC[C@@]21C [EM-1007, 6-Methyl-4,6-pregnadien-17α-ol-3,20-dione 4′-Carbomethoxybutyrate] |  |  | % Inhibition Glucocorticoid Receptor (E^−6): 0%; % Inhibition Glucocorticoid Receptor (E^−8): 0%

Row | Compound | inhibition at 1 µM (Table 4′, E^−6) [%] | inhibition at 0.01 µM (Table 4′, E^−8) [%] | other results
18 | CN(C)CCOc1ccc2c(c1)CCC1C2CCC2(C)C1CCC21CCC(C)(C)C(=O)O1 (stereo not shown) [EM-1389-CS] | 3 | 0 | 
19 | C[C@]12CCC3c4ccc(O)cc4CCC3C1CC[C@@]21CCCC(=O)O1 (stereo partly drawn) [EM-919, 1,3,5(10)-estratrien-3-ol-17(R)-spiro-2′(6′-oxo)tetrahydropyran] |  |  | % Inhibition Glucocorticold Receptor *E^−5 (Table 4′, starred values, E^−5): 33* %; % Inhibition Glucocorticold Receptor *E^−7 (Table 4′, starred values, E^−7): 0* %
20 | CC(=O)[C@@]1(OC(=O)CCCCF)CCC2C3C=C(C)C4=CC(=O)CC[C@]4(C)C3CC[C@@]21C (stereo partly shown) [EM-1195-CS] |  |  | % Inhibition Glucocorticoid Receptor (E^−6): 90%; % Inhibition Glucocorticoid Receptor (E^−8): 3%
21 | CC1CCC2(CCC3C4CCc5cc(O)c([N+](=O)[O-])cc5C4CCC32C)OC1=O [EM-1131, 2-Nitro-1,3,5(10)-estratrien-3-ol-17(R)-spiro-2′-(5′-methyl-6′-oxo)tetrahydropyran] | 0 | 0 | 
22 | COc1ccc2c(c1)C(=O)CC1C3CCC4(CCC(C)(C)C(=O)O4)C3(C)CCC21O (stereo not shown) [EM-1386] | 0 | 3 | 
23 | CCS(=O)(=O)Oc1ccc2c(c1)CCC1C2CCC2(C)C1CCC21CCC(C)(C)C(=O)O1 (stereo not shown) [EM-1364-CS] | 3 | 0 | 
24 | COc1c(Br)cc2c(c1Br)CCC1C2CCC2(C)C1CCC21CCC(C)(C)C(=O)O1 (stereo not shown) [EM-1385-CS] | 5 | 0 | 
25 | CC(=O)O[C@]1(C(=O)N(C)C)CCC2C3C=C(C)C4=CC(=O)CC[C@]4(C)C3CC[C@@]21C (stereo partly shown) [EM-1159] |  |  | % Inhibition Glucocorticoid Receptor (E^−6): 59%; % Inhibition Glucocorticoid Receptor (E^−8): 8%
26 | CC(=O)O[C@]1(C(C)=O)CCC2C3C=C(C)C4=CC(=O)CC[C@]4(C)C3CC[C@@]21C (stereo partly shown) [megestrol acetate, reference compound] |  |  | % Inhibition Glucocorticoid Receptor (* E^−5): 98* %; % Inhibition Glucocorticoid Receptor (* E^−7): 17* %; % Inhibition Glucocorticoid Receptor (E^−6): 82%; % Inhibition Glucocorticoid Receptor (E^−8): 0%
27 | C[C@]12CCC(=O)C=C1C=C[C@@H]1[C@@H]2CC[C@]2(C)C(=O)C3(CC4CC4C3)C[C@@H]12 (stereo partly shown) [EM-1299, 4,6-Androstadien-3,17-dione-16-spirobicyclo[3′.1′.0′]-hexane] |  |  | % Inhibition Glucocorticoid Receptor E^−6 (E^−6): 0%; % Inhibition Glucocorticoid Receptor E^−8 (E^−8): 0%
28 | CSCCOc1ccc2c(c1)CCC1C2CCC2(C)C1CCC21CCCC(=O)O1 [CS-242, 3-Methylthioethyloxy-1,3,5(10)-estratrien-17(R)-spiro-2′-(6′-oxo) Tetrahydropyran] | 0 | 0 | 
29 | COc1ccc(CC(=O)O[C@]2(C(C)=O)CCC3C4C=C(C)C5=CC(=O)C=C[C@]5(C)C4CC[C@@]32C)cc1 (stereo partly shown) [EM-1291] |  |  | % Inhibition Glucocorticoid Receptor (E^−6): 69%; % Inhibition Glucocorticoid Receptor (E^−8): 1%
30 | C[C@]12CCC3c4cc([N+](=O)[O-])c(O)cc4CCC3C1CC[C@@]21CCCC(=O)O1 (stereo partly drawn) [EM-1124, 2-Nitro-1,3,5(10)-estraetriene-3-ol-17(R)-spiro-2′-(6′-oxo)tetrahydropyran] | 1 | 1 | 
31 | COCCOc1cc2c(cc1C#N)C1CC[C@@]3(C)C(CC[C@@]34CCC(C)(C)C(=O)O4)C1CC2 (stereo partly shown) [EM-1396] | 1 | 0 | 
32 | COc1ccc2c(c1)CCC1C2CCC2(C)C1CCC21CCC(C)(C)C(=O)O1 (stereo not shown) [EM-1370] | 0 | 3 | 
33 | CC1(C)CC[C@@]2(CCC3C4CCc5cc6oncc6cc5C4CC[C@@]32C)OC1=O (stereo partly drawn) [EM-1407-CS, 1,3,5(10)-estratrien-(2,3-oximino)-17(R)-spiro-2′-(5′,5′-dimethyl-6′-oxo)tetrahydropyran] | 0 | 0 | 
34 | COCCOc1cc2c(cc1C(=O)OC)C1CC[C@@]3(C)C(CC[C@@]34CCC(C)(C)C(=O)O4)C1CC2 (stereo partly drawn) [EM-1402-CS, 2-Carbomethoxy-3-(2″-methoxyethyloxy)-1,3,5(10)-estratrien 17(R)-spiro-2′-(5′,5′-dimethyl-6′-oxo)tetrahydropyran] | 7 | 4 | 
